For assay [1], the system named is Human dermal adult and newborn skin fibroblasts. Briefly: Proliferation of human dermal fibroblasts in media supplemented with collagenase. The assay is classed as cell-based. Conditions: primary and secondary culture. The method, then: Human dermal adult and newborn skin fibroblasts were cultured in a SFM and serum-containing media (DMEM 5% FBS). Collagenase ([…]) was added to the DMEM serum free media (SFM) and tested on primary and secondary culture of human adult and newborn fibroblasts. In both cases (SFM and DMEM 5%) Collagenase increase cell proliferation up to 2-2.5 fold over the controls.

Assay [2] has as its system Normal human adult chondrocytes and normal rodent chondrocytes. As to the kind of experiment: Culture of chondrocytes in supplemented DMEM serum free media. The assay is classed as cell-based. Particulars: DMEM SFM, Collagenase 5 μg/ml; after 4, 6, and 9 passages. The method, then: Currently, there is not any SFM commercially available for chondrocytes. Using the serum-containing media available, the life-span of the chondrocytes in culture is very limited (up to 3 to 4 passages, between 10-15 doublings times). Thus, the present example illustrates the use of collagenase and forskolin to allow the used of SFM with chondrocytes.
Normal human adult chondrocytes and normal rodent chondrocytes were cultured in a SFM. Collagenase (5 μg/ml) was added into the DMEM serum free media (SFM) and tested on said primary and secondary chondrocytes cultures.

With Collagenase, the “increase of cell proliferation over the controls” value in assay [1] (DMEM serum free media (SFM), Collagenase 1 μg/nl) was 2-2.5 fold; in assay [1] (serum-containing media (DMEM 5% FBS)), 2-2.5 fold. Further, the growth of chondrocytes result in assay [2] was “robust growth”.

These data come from patent US20070128685A1, “Methods and compositions for cell culture” (priority 2005, published 2007).
